Experimental data published in patent US20240336972A1, “METHODS FOR SELECTING MELANOMA PATIENTS FOR THERAPY AND METHODS OF REDUCING OR PREVENTING MELANOMA METASTASIS” (Oregon Health & Science University, priority 2021, published 2024).
Entries after “also recorded” stand apart in the source; their conditions may differ.

Columns and labels:
[1] = system: A375 melanoma cells; assay: RNA-seq of A375 melanoma cells before and after treatment with fluvastatin; type: cell-based, human
Description: Characterization of the transcriptome in human melanoma cells exposed to fluvastatin The effect of statins on the melanoma transcriptome was characterized using a well-established melanoma cell line. Human melanoma cell line A375 (a generous gift of Dr John Letterio, Case Western Reserve University, Cleveland, OH) were maintained in standard growth media consisting of RPMI 1640 (Thermo Fisher Scientific, Waltham, MA) b 10% fetal bovine serum p 2 mM glutamine and grown in a 5% carbon dioxide-humidified atmosphere at 37° C. Cells were tested biannually and shown to be negative for mycoplasma contamination using the Mycoplasma Detection kit (MycoAlert, Lonza, Basel, Switzerland). For gene expression studies, A375 cells were seeded at 2.5E6 per […] and allowed to adhere overnight. Test samples (in triplicate) were treated with fluvastatin (purchased from Millipore Sigma, St. […] Untreated control cells grown side by side were used as the reference control for differential expression analysis. RNA was quantified using the Qubit Broad Range RNA kit (catalog #Q10210; Thermo Fisher Scientific) and diluted to 50 ng/ml for RNA-seq.
Sequencing reads generated from the Illumina HiSeq platform (Illumina, San Diego, CA) were assessed for quality and trimmed for adapter sequences using TrimGalore!, version 0.4.2 (Babraham Bioinformatics, Cambridge, United Kingdom), a wrapper script for FastQC and cutadapt. Reads that passed quality control were subsequently aligned to the human reference genome (GRCh38) using STAR aligner, version 2.5.1. Sequence alignment was guided using the GENCODE annotation for hg38. The aligned reads were analyzed for differential expression using Cufflinks, version 2.2.1, an RNA-seq analysis package that reports the fragments per kilobase of exon per million mapped for each gene. A differential analysis report was generated using the cuffdiff command performed in a pairwise manner for each group. Differential genes were identified using a significance cutoff of q<0.05. The differential expression profiles were then used as input in iPathwayGuide (Advaita Bioinformatics, Ann Arbor, MI) for pathway analysis.

[2] = system: A375 cells; conditions: cited from earlier work
[3] = system: melanoma metastasis; conditions: mouse, in vivo; cited from earlier work
[4] = system: melanocytic atypia and melanoma initiation markers; conditions: in vivo; cited from earlier work
[5] = fluvastatin 3 µM, 24 hours, vs untreated control
[6] = fluvastatin 3 µM, 24 hours, vs untreated control, SkylineDx profile gene

## CC(C)n1c(/C=C/C(O)CC(O)CC(=O)O)c(-c2ccc(F)cc2)c2ccccc21 (centres unmarked) [Fluvastatin]
[1]
  expression of genes included in melanoma prognostic tests (DecisionDx-Melanoma, Merlin Assay): significantly altered
  expression of genes used in a diagnostic test that distinguishes melanoma from nevi (myPath Melanoma): did not alter; also recorded: did not affect
[1]; 3 μM concentration for 24 hours
  effect on the metastatic gene expression profile of melanoma: effectively reverses
[1]; after fluvastatin exposure, q=0.062, not statistically significant
  SLC16A1 fold change: 0.797
[1]; [5]
  BUB1 Log2 Fold Change: −0.7319
  CCND3 Log2 Fold Change: −0.7194
  CDKN1A Log2 Fold Change: 1.3053
  CDKN1C Log2 Fold Change: 3.2643
  CUL1 Log2 Fold Change: −0.3847
  FGF2 Log2 Fold Change: −0.5791
  KIFC1 Log2 Fold Change: −0.4213
  MAGEA1 Log2 Fold Change: −0.4357
  MAGEA3 Log2 Fold Change: −0.4574
  MAGEA4 Log2 Fold Change: −0.2919
  MAGEA6 Log2 Fold Change: −0.4529
  MAGED1 Log2 Fold Change: 0.7222
  S1PR5 Log2 Fold Change: −1.3212
  SOX4 Log2 Fold Change: −0.4139
  TGFBRAP1 Log2 Fold Change: −0.3389
[1]; fluvastatin 3 µM, 24 hours, vs untreated control, Castle Biosciences profile gene
  AQP3 Log2 Fold Change: 3.2162
[1]; fluvastatin 3 µM, 24 hours, vs untreated control, Castle Biosciences profile gene (keratin 14)
  K14 Log2 Fold Change: 2.8530
[1]; [6]
  CXCL8 Log2 Fold Change: 0.8218
  ITGB3 Log2 Fold Change: 0.5304
  PLAT Log2 Fold Change: 1.7389
[1]; significance cutoff q<0.05
  differentially expressed genes identified: 2,615

## CC(C)c1c(C(=O)Nc2ccccc2)c(-c2ccccc2)c(-c2ccc(F)cc2)n1CC[C@@H](O)C[C@@H](O)CC(=O)O [atorvastatin, Atorvastatin]
[2]; Matrigel transwell assay
  migration and invasion: decreasing
[2]
  isoprenylation of RhoC: decreases
[3]
  metastasis: decreasing

## CC[C@H](C)C(=O)O[C@H]1C[C@@H](C)C=C2C=C[C@H](C)[C@H](CC[C@@H]3C[C@@H](O)CC(=O)O3)[C@H]21 [lovastatin, Lovastatin]
[4]
  melanocytic atypia or other melanoma initiation markers: did not identify any significant decreases
